The test system of assay [1] is stroke-prone spontaneously hypertensive rats (SHRSP/Izm, male). Briefly: Evaluation of blood fluidity: whole blood transit time through microchannel array (MC-FAN) after 28 days oral administration. To be noted: 50 mg/Kg/day oral; for Transit time: 7 μm microchannels, 20 cm water column. Format: in vivo, rat. The method, then: Tests were started using stroke-prone spontaneously hypertensive rats (SHRSP/Izm, male) 6 weeks old after acclimating the rats 1 week or longer. The rats were all fed under the conditions of 20 to 26° C. temperature, 40 to 70% humidity and 12 hr. lighting time (from 6 a.m. to 6 p.m.).
The rats were administered with samples of the example of the present invention and samples of the comparative example once a day for continuous 28 days from a day when the rats reached 8 weeks of age. For administration, samples were orally administered by forced administration using a disposable polypropylene syringe attached with a metallic oral sonde. For the example, each sample contained a chlorogenic acid (supplied by Sigma Chemical Co., Ltd.) of 50 mg/Kg (body weight)/day, while the comparative example used the equal dose of injection grade water (supplied by Otsuka Pharmaceutical Co., Ltd., Tokyo, Japan) as samples. The preferred example also used the injection grade water as a medium for samples.
For feeds, the rats had been fed freely with a solid feed (CRF-1 supplied by Oriental Yeast Co., Ltd., Tokyo, Japan) for a period from the arrival to grouping of rats and with another solid feed (SP (a feed containing 0.4% common salt) supplied by the same manufacturer as above) for a period succeeding to the grouping. For drinking water, tap water was used in the period from the receipt to grouping of rats and 1% brine in the period after the grouping, respectively, for free uptake.
After administering rats with a specified sample for 28 continuous days, blood was sampled from each rat using a VENOJECT II vacuum blood collection tube of 7 mL size (available from Terumo Corporation, Tokyo, Japan) preinfused with 350 μL heparin as an anticoagulant (equivalent to 5% of whole blood). Upon sampling, the blood was agitated quickly to obtain blood samples for measurement. For blood measurement, a cellular microrheological measurement system was used (MC-FAN available from Hitachi Haramachi Electronics Co., Ltd., Ibaragi, Japan). The system incorporates an array of microchannels as a model of blood capillaries to measure the flowing characteristics of blood cells under constant differential pressure. As the model of blood capillaries, a silicon monocrystal basal plate having microchannels of 7 μm in width was used.
First, the time was measured for a 100 μL physiological saline solution to pass through the blood capillary model under differential pressure of 20 cm water column (the measured value to be used later for correction). Then the time was measured (in sec.) for a 100 μL each blood sample to pass through the blood capillary model under the same conditions. The time was measured every 10 μL fraction of sample flow. Each blood sample was microscopically observed as it flowed through the blood capillary model.

The test system is the same in assay [2]. Briefly: Evaluation of effects of improving cerebrovascular diseases: development of cerebral apoplexy, histopathological examination. Format: in vivo, rat. The following applies: 50 mg/Kg/day oral, 49 days. The method, then: Tests were started using stroke-prone spontaneously hypertensive rats (SHRSP/Izm, male) 6 weeks old after acclimating the rats I week or longer. The rats were all fed under the conditions of 20 to 26° C. temperature, 40 to 70% humidity and 12 hr. lighting time (from 6 a.m. to 6 p.m.). Rat was administered with samples of the preferred example of the present invention and samples of the comparative example once a day for continuous 49 days from a day when the rats reached 8 weeks of age. For administration, samples were orally administered by forced administration using a disposable polypropylene syringe attached with a metallic oral sonde. For the preferred example, each sample comprised a chlorogenic acid (supplied by Sigma Chemical Co., Ltd.) of 50 mg/Kg (body weight)/day, while the comparative example used the equal dose of injection grade water (supplied by Otsuka Pharmaceutical Co., Ltd., Tokyo, Japan) as samples. The preferred example also used the injection grade water as a medium for samples. For feeds, the rats were fed freely with a solid feed (CRF-1 supplied by Oriental Yeast Co., Ltd., Tokyo, Japan) for a period from the arrival to grouping of rats and with another solid feed (SP (a feed containing 0.4% common salt) supplied by the same manufacturer as above) for a period succeeding to the grouping. […]

In the case of `O=C(/C=C/c1ccc(O)c(O)c1)O[C@@H]1C[C@](O)(C(=O)O)C[C@@H](O)[C@H]1O` [Preferred example, chlorogenic acid], the “Transit times versus comparative example (injection grade water), in words” value in assay [1] was “shorter transit times”. Further, the Transit time stood at 4.87 s in assay [1] (blood volume passed 10 μL); 9.67 s in assay [1] (blood volume passed 20 μL); 14.31 s in assay [1] (blood volume passed 30 μL); 19.34 s in assay [1] (blood volume passed 40 μL); 24.59 s in assay [1] (blood volume passed 50 μL); 30.03 s in assay [1] (blood volume passed 60 μL). In addition, the Transit time in assay [1] (blood volume passed 70 μL) came to 35.90 s; in assay [1] (blood volume passed 80 μL) it was 41.65 s; in assay [1] (blood volume passed 90 μL) it was 47.58 s; in assay [1] (blood volume passed 100 μL), 53.38 s. Also, in assay [2], the “Development of cerebral apoplexy versus comparative example (injection grade water), in words” value is “definitely suppressed development of cerebral apoplexy”. Further, the “Cerebral apoplexy developed (number of rats)” value in assay [2] (of 10 rats used) came out at 3.

The values above are taken from patent US20080188563A1, “BLOOD FLUIDITY IMPROVING AGENT” (KAO CORPORATION, priority 2002, published 2008).
